Laboratory results taken from patent US20220146526A1, “METHOD FOR EVALUATING SAMPLE, ANALYSIS METHOD, METHOD FOR DETECTING DEGRADED SAMPLE, MARKER FOR DETECTING DEGRADED BLOOD PLASMA SAMPLE, AND MARKER FOR DETECTING DEGRADED SERUM SAMPLE” (SHIMADZU CORPORATION, priority 2019, published 2022).

How the values were obtained:
Assay type in all cases: physicochemical, human
[1] = GC/MS of serum sample: time from blood collection to centrifugation (Table G); settings: blood collection to centrifugation; for Rate of increase or decrease: detection intensity relative to 1 at 15 minutes; for Increase or decrease: detection intensity
Procedure: (§1) After standing, the blood sample was subjected to centrifugation under a condition of room temperature, 3500 rpm, and 5 minutes. […] After centrifugation, the blood-collecting vessel was left to stand at room temperature, and the serum was isolated during this time. Here, in order to investigate how the detection intensity of molecules contained in the sample was affected in cases where the time during which the blood-collecting vessel was left at room temperature was set to 1 hour and 6 hours as compared to that in a case where the time was set to 30 minutes, preparations were performed under the respective conditions of 30 minutes, 1 hour, and 6 hours. The obtained serum sample was frozen and stored. Here, in order to investigate how the detection intensity of molecules contained in the sample was affected in cases where freezing and thawing was performed 4 times, 6 times, and 10 times after freezing as compared to that in a case where freezing and thawing was performed 2 times after freezing, freezing and thawing was performed under the respective conditions of 2, 4, 6, and 10 times.
(§2) Frozen blood plasma samples and serum samples were subjected to GC/MS or LC/MS. In GC/MS, the blood plasma samples and serum samples were subjected to methoxymation and trimethylsilylation and then introduced to GC-MS.
(§3) GC/MS was conducted using GCMS·TQ8040 (Shimadzu Corporation) that was a GC·MS equipped with AOC·20i (Shimadzu Corporation) as an autosampler.
(§4) Column: BPX5 (inner diameter of 0.25 mm, length of 30 m, and film thickness of 0.25 μm) (SGE)
(§5) Column temperature: maintained at 60° C. for 2 minutes, then raised at 15° C./min, and maintained at 330° C. for 3 minutes.
(§6) Inlet temperature: 250° C.
(§7) Carrier gas control mode: constant linear velocity of 39.0 cm/sec
(§8) Sample introduction method: split (split ratio of 30:1) Injection volume: 1 μL
(§9) Ionization method: electron ionization
(§10) Ionization current: 60 μA
(§11) Interface temperature: 280° C.
(§12) Ion source temperature: 200° C.
(§13) Mode: multiple reaction monitoring (MRM)
The rate of increase or decrease in Table G is the value of detection intensity relative to 1 that is the detection intensity in a case where the time from blood collection to centrifugation is set to 15 minutes.

[2] = GC/MS of serum sample: number of times of freezing and thawing (Table I); parameters: key to Rate of increase or decrease / Rate of increase or decrease (first value, increase): detection intensity relative to 2 freeze-thaw cycles = 1; settings: for Rate of increase or decrease: detection intensity relative to 1 at 2 times; for Number of times when compound is affected: detection intensity changed by 30% or more vs 2 times of freezing and thawing
Procedure: as §1, §2, §3, §4, §5, §6, §7, §8, §9, §10, §11, §12, §13
The rate of increase or decrease in Table I is the value of detection intensity relative to 1 that is the detection intensity in a case where the number of times of freezing and thawing is set to 2 times.

[3] = GC/MS of serum sample: time from centrifugation to isolation (Table H); parameters: key to Rate of increase or decrease / Rate of increase or decrease (first value, increase): detection intensity relative to 1 at 30 min centrifugation-to-isolation; settings: for Increase or decrease: detection intensity; for Rate of increase or decrease: detection intensity relative to 1 at 30 minutes
Procedure: as §1, §2, §3, §4, §5, §6, §7, §8, §9, §10, §11, §12, §13
The rate of increase or decrease in Table H is the value of detection intensity relative to 1 that is the detection intensity in a case where the time from centrifugation to isolation is set to 30 minutes.

[4] = LC/MS of serum sample: number of times of freezing and thawing (Table M); parameters: key to Rate of increase or decrease: detection intensity relative to 1 at 2 freeze-thaw cycles; settings: for Number of times when compound is affected / Increase or decrease: serum sample, LC/MS; for Number of times when compound is affected: detection intensity changed by 30% or more vs 2 times of freezing and thawing; for Increase or decrease: detection intensity vs 2 times of freezing and thawing
Procedure: as §1, §2
Analysis column: Discovery HS F5-3 (inner diameter of 2.1 mm, length of 150 mm, film thickness of 3 μm) (Sigma-Aldrich)
Column temperature: 40° C.
(A) 0.1% formic acid (dissolved in water)
(B) 0.1% formic acid (dissolved in acetonitrile)
Flow velocity: 0.25 mL/min
Ionization method: electrospray
Temperature: • Desolvation Line (DL) temperature: 250° C. • Heat block temperature: 400° C. • Interface temperature: 300° C.
Gas flow rate: • Nebulizer gas flow rate: 3.0 L/min • Drying gas flow rate: 10.0 L/min • Heating gas flow rate: 10.0 L/min
as §13
The rate of increase or decrease in Table M is the value of detection intensity relative to 1 that is the detection intensity in a case where the number of times of freezing and thawing is set to 2 times.

[5] = serum, GC/MS, freezing and thawing 6 times
[6] = detection intensity, serum, GC/MS, freezing and thawing 6 times vs 2 times
[7] = serum, GC/MS, freezing and thawing 4 times
[8] = detection intensity, serum, GC/MS, freezing and thawing 4 times vs 2 times
[9] = 10 times of freezing and thawing
[10] = serum sample, GC/MS, detection intensity vs 2 times of freezing and thawing
[11] = 6 times of freezing and thawing, detection intensity relative to 1 at 2 times
[12] = 10 times of freezing and thawing, detection intensity relative to 1 at 2 times

Structure (SMILES): CC(C)C(=O)C(=O)O [2-Ketoisovaleric acid]
- Rate of increase or decrease ([1]; after 8 hours): 0.67
- Increase or decrease ([1]; after 8 hours vs 15 minutes): Decrease

Structure (SMILES): NCCC(=O)O [3-Aminopropionic acid (β-alanine), 3-Aminopropionic acid]
- Rate of increase or decrease ([1]; after 8 hours): 1.46
- Increase or decrease ([1]; after 8 hours vs 15 minutes): Increase

Structure (SMILES): Nc1c(O)cccc1C(=O)O [3-Hydroxyanthranyl acid]
- Rate of increase or decrease ([1]; after 4 hours): 0.59
- Increase or decrease ([1]; after 4 hours vs 15 minutes): Decrease
- Rate of increase or decrease [2, 5]: 1.34
- Increase or decrease [2, 6]: Increase

Structure (SMILES): CC(C)(O)CC(=O)O [3-Hydroxyisovaleric acid]
- Rate of increase or decrease ([1]; after 12 hours): 1.35
- Increase or decrease ([1]; after 12 hours vs 15 minutes): Increase

Structure (SMILES): O=C(O)CCO [3-Hydroxypropionic acid]
- Rate of increase or decrease [2, 7]: 0.55
- Increase or decrease [2, 8]: Decrease
- Increase or decrease ([3]; after 6 hours vs 30 minutes): Different from individual
- Rate of increase or decrease (second value, decrease) ([3]; different from individual to individual, individuals with decrease, relative to 1 at 30 minutes, after 6 hours): 0.65
- Rate of increase or decrease (first value, increase) ([3]; different from individual to individual, individuals with increase, relative to 1 at 30 minutes, after 6 hours): 1.91

Structure (SMILES): O=C(O)c1ccc(CO)o1 [5-Hydroxymethyl-2-furancarboxylic acid]
- Rate of increase or decrease ([3]; after 1 hour): 1.71
- Increase or decrease ([3]; after 1 hour vs 30 minutes): Increase

Structure (SMILES): CC(=O)NCC(=O)O [Acetylglycine]
- Rate of increase or decrease ([1]; after 4 hours): 0.68
- Increase or decrease ([1]; after 4 hours vs 15 minutes): Decrease

Structure (SMILES): O=C[C@H](O)[C@H](O)[C@H](O)[C@H](O)CO [Allose]
- Rate of increase or decrease [2, 5]: 0.62
- Increase or decrease [2, 6]: Decrease

Structure (SMILES): CCCCCCCCCC(=O)O [Decanoic acid]
- Rate of increase or decrease ([1]; after 8 hours): 0.69
- Increase or decrease ([1]; after 8 hours vs 15 minutes): Decrease

Structure (SMILES): O=C(O)[C@H](O)[C@@H](O)[C@H](O)[C@H](O)CO [Gluconic acid]
- Increase or decrease ([1]; after 12 hours vs 15 minutes): Increase

Structure (SMILES): N[C@H]1C(O)O[C@H](CO)[C@@H](O)[C@@H]1O (some centres unmarked) [Glucosamine]
- Rate of increase or decrease [2, 9]: 2.43
- Number of times when compound is affected ([2]; serum sample, GC/MS): 10 times
- Increase or decrease [2, 10]: Increase
- Rate of increase or decrease ([3]; after 6 hours): 1.69
- Increase or decrease ([3]; after 6 hours vs 30 minutes): Increase

Structure (SMILES): O=C(O)CCCC(=O)O [Glutaric acid]
- Rate of increase or decrease ([1]; after 8 hours): 1.39
- Increase or decrease ([1]; after 8 hours vs 15 minutes): Increase

Structure (SMILES): NO [Hydroxylamine]
- Rate of increase or decrease [2, 9]: 2.31
- Number of times when compound is affected ([2]; serum sample, GC/MS): 10 times
- Increase or decrease [2, 10]: Increase
- Rate of increase or decrease ([3]; after 6 hours): 1.87
- Increase or decrease ([3]; after 6 hours vs 30 minutes): Increase

Structure (SMILES): O[C@H]1[C@H](O)[C@@H](O)[C@H](O)[C@@H](O)[C@H]1O [Inositol]
- Rate of increase or decrease ([1]; after 8 hours): 1.46
- Increase or decrease ([1]; after 8 hours vs 15 minutes): Increase

Structure (SMILES): CCCCCCCCCCCCCCCCC(=O)O [Margaric acid, margaric acid]
- Rate of increase or decrease [2, 9]: 1.35
- Number of times when compound is affected ([2]; serum sample, GC/MS): 10 times
- Increase or decrease [2, 10]: Increase

Structure (SMILES): OC[C@@H](O)[C@@H](O)CO [Meso-erythritol]
- Rate of increase or decrease ([1]; after 8 hours): 0.66
- Increase or decrease ([1]; after 8 hours vs 15 minutes): Decrease
- Rate of increase or decrease [2, 9]: 0.69
- Number of times when compound is affected ([2]; serum sample, GC/MS): 10 times
- Increase or decrease [2, 10]: Decrease

Structure (SMILES): CSCC[C@H](N)C(=O)O [Methionine, methionine]
- Rate of increase or decrease [4, 11]: 0.69
- Number of times when compound is affected [4]: 6 times
- Increase or decrease [4]: Decrease

Structure (SMILES): CC(=O)N[C@@H](CCC(N)=O)C(=O)O [N-acetylglutamine]
- Rate of increase or decrease [2, 9]: 2.17
- Number of times when compound is affected ([2]; serum sample, GC/MS): 10 times
- Increase or decrease [2, 10]: Increase
- Rate of increase or decrease ([3]; after 6 hours): 1.58
- Increase or decrease ([3]; after 6 hours vs 30 minutes): Increase

Structure (SMILES): CCCCCCCC/C=C\CCCCCCCC(N)=O [Oleamide]
- Rate of increase or decrease [2, 7]: 2.08
- Increase or decrease [2, 8]: Increase

Structure (SMILES): CCCCCCCCC(=O)O [Pelargonic acid, pelargonic acid]
- Rate of increase or decrease [2, 9]: 0.67
- Number of times when compound is affected ([2]; serum sample, GC/MS): 10 times
- Increase or decrease [2, 10]: Decrease

Structure (SMILES): N[C@@H](Cc1ccccc1)C(=O)O [Phenylalanine, phenylalanine]
- Rate of increase or decrease [4, 12]: 0.57
- Number of times when compound is affected [4]: 10 times
- Increase or decrease [4]: Decrease

Structure (SMILES): Cc1ncc(CO)c(CN)c1O [Pyridoxamine]
- Rate of increase or decrease ([1]; after 4 hours): 1.52
- Increase or decrease ([1]; after 4 hours vs 15 minutes): Increase
- Rate of increase or decrease [2, 9]: 0.61
- Number of times when compound is affected ([2]; serum sample, GC/MS): 10 times
- Increase or decrease [2, 10]: Decrease

Structure (SMILES): CNCC(=O)O [Sarcosine, sarcosine]
- Number of times when compound is affected ([2]; serum sample, GC/MS): 10 times
- Increase or decrease [2, 10]: Increase

Structure (SMILES): OC[C@@H](O)[C@@H](O)[C@H](O)[C@@H](O)CO [Sorbitol]
- Rate of increase or decrease ([1]; after 8 hours): 1.54
- Increase or decrease ([1]; after 8 hours vs 15 minutes): Increase
- Rate of increase or decrease [2, 9]: 0.61
- Number of times when compound is affected ([2]; serum sample, GC/MS): 10 times
- Increase or decrease [2, 10]: Decrease

Structure (SMILES): C[C@@H](O)[C@H](N)C(=O)O [Threonine, threonine]
- Rate of increase or decrease ([4]; 6 times of freezing and thawing, relative to 1 at 2 times, different from individual to individual, first value (increase)): 1.31
- Rate of increase or decrease ([4]; 6 times of freezing and thawing, relative to 1 at 2 times, different from individual to individual, second value (decrease)): 0.69
- Number of times when compound is affected [4]: 6 times
- Increase or decrease [4]: Different from individual

Structure (SMILES): N[C@@H](Cc1ccc(O)cc1)C(=O)O [Tyrosine, tyrosine]
- Rate of increase or decrease [4, 11]: 0.60
- Number of times when compound is affected [4]: 6 times
- Increase or decrease [4]: Decrease

Structure (SMILES): CC(C)[C@H](N)C(=O)O [Valine, valine]
- Rate of increase or decrease [4, 12]: 0.56
- Number of times when compound is affected [4]: 10 times
- Increase or decrease [4]: Decrease

Structure (SMILES): OC[C@@H](O)[C@H](O)[C@@H](O)CO [Xylitol]
- Rate of increase or decrease ([1]; after 8 hours): 0.62
- Increase or decrease ([1]; after 8 hours vs 15 minutes): Decrease
